Test results: article PMC10584170, “Machine learning-based phenotypic imaging to characterise the targetable biology of Plasmodium falciparum male gametocytes for the development of transmission-blocking antimalarials” (PLOS Pathogens, 2023)
Read-outs that look alike come from different tables or passages of the source.

What was measured:
[1] = system: P. falciparum male gametocytes; assay: P. falciparum Dual Gamete Formation Assay (PfDGFA), male readout (exflagellation); type: cell-based, Plasmodium falciparum NF54; conditions: for Selectivity Ratio M: HepG2 Tox50 versus male IC50; for inhibition at 2 µM / IC50: Plasmodium falciparum; for inhibition at 2 µM: 24h preincubation with gametocytes; for IC50: PfDGFA, 24 h incubation with gametocytes before induction, exflagellation readout, read-out: Male IC50
Experimental: (§1) P. falciparum NF54 (originally isolated from an imported malaria case in the Netherlands in the 1980s; BEI Resources, cat. No. MRA-1000) strain asexual parasites were maintained between 0.3–5% parasitaemia by regular passage in complete culture medium (RPMI supplemented with 25 mM HEPES, 50 μg ml^−1 hypoxanthine, 4.8 g l^−1 NaHCO3, 2mM L-glutamine, 5% pooled type AB serum, 0.5% Albumax II (Gibco)) at 4% haematocrit in washed whole blood (National Blood and Transfusion Service or Centro de Transfusiones de la Comunidad de Madrid CTCM) under a 1% O2/3% CO2/96% N2 environment. Gametocytes were induced by seeding culture flasks at 2% parasitaemia/4% haematocrit and subjecting them to daily medium changes for 14 days whilst maintaining a temperature of 37°C at all times. On Day 14, the maturity of gametocytes was assessed by quantifying male gametogenesis (exflagellation). A 20 μl sample of gametocyte culture was mixed with equal volume of ookinete medium (complete culture medium supplemented with 0.1 μM xanthurenic acid) at room temperature and transferred to a haemocytometer. After 20 min at room temperature, exflagellation was accurately quantified as described in Delves et al. 2016 [17].
(§2) The Pf DGFA was performed as described in Delves et al. 2016 [17]. […] Plates were then incubated for 24 h at 37°C in a humidified box under a 1% O2/3% CO2/96% N2 gas mix. Gametogenesis was triggered by addition of 10 μl per well of ookinete medium + 0.27 μg ml^-1 Cy3-labelled anti-Pfs25 antibody. Plates were incubated on a metal block at 4°C for 4 min to ensure even cooling, then 28°C for a further 4 min. Exflagellation was recorded by capturing 10 frames over 1 s under brightfield illumination using a x4 objective with a 1.5x zoom (effectively x6) attached to an automated Nikon Ti fluorescence microscope. After recording exflagellation, plates were incubated for a further 24 h in the dark at 28°C to ensure maximal expression of Pfs25 by female gametes. The plates were then returned to the microscope and female gametes imaged at x6 using fluorescence microscopy.
(§3) Exflagellation centres and female gametes were quantified using custom image analysis pipelines developed within ICY Bioimage Analysis (https://icy.bioimageanalysis.org/).

[2] = system: P. falciparum female gametocytes; assay: P. falciparum Dual Gamete Formation Assay (PfDGFA), female readout (Pfs25-positive female gametes); type: cell-based, Plasmodium falciparum NF54; conditions: for Selectivity ratio F: HepG2 Tox50 versus female IC50; for inhibition at 2 µM / IC50: Plasmodium falciparum; for inhibition at 2 µM: 24h preincubation with gametocytes; for IC50: PfDGFA, 24 h incubation with gametocytes before induction, female gamete readout, read-out: Female IC50
Experimental: as §1, §2, §3

[3] = PfDGFA at 2µM, 24h preincubation with gametocytes prior to induction of gametogenesis, replicate R1
[4] = PfDGFA at 2µM, 24h preincubation with gametocytes prior to induction of gametogenesis, replicate R3
[5] = PfDGFA at 2µM, 24h preincubation with gametocytes prior to induction of gametogenesis, replicate R4
[6] = PfDGFA at 2µM, 24h preincubation, average of replicates
[7] = 2µM, 24h preincubation with gametocytes prior to induction of gametogenesis, average of replicates
[8] = 2µM, 24h preincubation with gametocytes prior to induction of gametogenesis, replicate R1
[9] = 2µM, 24h preincubation with gametocytes prior to induction of gametogenesis, replicate R3
[10] = 2µM, 24h preincubation with gametocytes prior to induction of gametogenesis, replicate R4

SMILES | Selectivity Ratio M [1] | IC50 [1] | Selectivity ratio F [2] | IC50 [2] | % inhibition male (individual replicates) R1 [1, 3] | % inhibition male (individual replicates) R3 [1, 4] | % inhibition male (individual replicates) R4 [1, 5] | Average inhibition male (%) [1, 6] | % inhibition female (individual replicates) R1 [2, 3] | % inhibition female (individual replicates) R3 [2, 4] | % inhibition female (individual replicates) R4 [2, 5] | Average inhibition female (%) [2, 6] | Average inhibition male (%) [1, 7] | % inhibition male (individual replicates) R1 [1, 8] | % inhibition male (individual replicates) R3 [1, 9] | % inhibition male (individual replicates) R4 [1, 10] | Average inhibition female (%) [2, 7] | % inhibition female (individual replicates) R1 [2, 8] | % inhibition female (individual replicates) R3 [2, 9] | % inhibition female (individual replicates) R4 [2, 10] | other results
COCCn1c(Sc2ncnc3sccc23)nc2ccccc21 [TCMDC-125258] | 81.39 | 1230 nM | 94.48 | 1060 nM |  |  |  |  |  |  |  |  |  |  |  |  |  |  |  |  | inhibition at 2 µM ([1]; PfDGFA at 2µM, average of replicates, read-out: Average inhibition male (%)): 69.9%; inhibition at 2 µM ([1]; PfDGFA at 2µM, replicate R1, read-out: % inhibition male (individual replicates) R1): 86.4%; inhibition at 2 µM ([1]; PfDGFA at 2µM, replicate R2, read-out: % inhibition male (individual replicates) R2): 73.7%; inhibition at 2 µM ([1]; PfDGFA at 2µM, replicate R3, read-out: % inhibition male (individual replicates) R3): 49.8%; inhibition at 2 µM ([1]; PfDGFA at 2µM, replicate R4, read-out: % inhibition male (individual replicates) R4): 69.6%; HitlevelM ([1]; number of replicates with >50% inhibition in the male readout, 2µM): 3; inhibition at 2 µM ([2]; PfDGFA at 2µM, average of replicates, read-out: Average inhibition female (%)): 60.4%; inhibition at 2 µM ([2]; PfDGFA at 2µM, replicate R1, read-out: % inhibition female (individual replicates) R1): 48.4%; inhibition at 2 µM ([2]; PfDGFA at 2µM, replicate R2, read-out: % inhibition female (individual replicates) R2): 75.4%; inhibition at 2 µM ([2]; PfDGFA at 2µM, replicate R3, read-out: % inhibition female (individual replicates) R3): 37.4%; inhibition at 2 µM ([2]; PfDGFA at 2µM, replicate R4, read-out: % inhibition female (individual replicates) R4): 80.3%; HitlevelF ([2]; number of replicates with >50% inhibition in the female readout, 2µM): 2
NC(=O)c1ccsc1NC(=O)CNC(c1ccccc1)c1ccc(Cl)cc1 (stereo not shown) [TCMDC-125330] |  |  |  |  | -5.4% | -28.2% | -28.5% | -19.7% | 0.32% | -9.3% | 6.9% | 1.5% |  |  |  |  |  |  |  |  | 
O=C(Nc1nc(-c2ccccn2)cs1)c1ccc(S(=O)(=O)N2CCc3ccccc32)cc1 [TCMDC-125432] |  |  |  |  |  |  |  |  |  |  |  |  | -21.9% | -19.8% | -49.6% | -25.8% | 23.2% | 27.4% | 14.7% | 30.9% | HitlevelM ([1]; 2µM, 24h preincubation, number of replicates with >50% inhibition in the male readout): 0; HitlevelF ([2]; 2µM, 24h preincubation, number of replicates with >50% inhibition in the female readout): 0
COc1ccc(-c2csc3nc(C)nc(Cl)c23)cc1OC [TCMDC-125523] |  |  |  |  |  |  |  |  |  |  |  |  | -3.5% | -8.3% | -15.7% | 6.2% | 3.7% | 4.5% | -29.0% | 16.0% | HitlevelM ([1]; 2µM, 24h preincubation, hits selected on >50% inhibition in the male readout across replicates): 0; Activity ([1]; PfDGFA at 2µM, 24h preincubation, hit = >50% inhibition in male or female readout in at least 3 replicates, 0 = no class assigned): 0; HitlevelF ([2]; 2µM, 24h preincubation, hits selected on >50% inhibition in the female readout across replicates): 0
c1ccc2sc(Sc3ncnc4sccc34)nc2c1 [TCMDC-125539] | 337.73 | 300 nM | 340.93 | 290 nM |  |  |  |  |  |  |  |  |  |  |  |  |  |  |  |  | inhibition at 2 µM ([1]; 2µM, average of replicates, read-out: Average inhibition male (%)): 97.1%; inhibition at 2 µM ([1]; 2µM, replicate R1, read-out: % inhibition male (individual replicates) R1): 100%; inhibition at 2 µM ([1]; 2µM, replicate R2, read-out: % inhibition male (individual replicates) R2): 97.4%; inhibition at 2 µM ([1]; 2µM, replicate R3, read-out: % inhibition male (individual replicates) R3): 95.7%; inhibition at 2 µM ([1]; 2µM, replicate R4, read-out: % inhibition male (individual replicates) R4): 94.9%; inhibition at 2 µM ([2]; 2µM, average of replicates, read-out: Average inhibition female (%)): 60%; inhibition at 2 µM ([2]; 2µM, replicate R1, read-out: % inhibition female (individual replicates) R1): 39.3%; inhibition at 2 µM ([2]; 2µM, replicate R2, read-out: % inhibition female (individual replicates) R2): 92.2%; inhibition at 2 µM ([2]; 2µM, replicate R3, read-out: % inhibition female (individual replicates) R3): 35.1%; inhibition at 2 µM ([2]; 2µM, replicate R4, read-out: % inhibition female (individual replicates) R4): 73.5%
CN1CCN(c2cc(-c3cccnc3)nc(-c3ccncc3)n2)CC1 [TCMDC-125593] |  |  |  |  | -6.4% | -15.1% | 5.5% | -4.3% | -2.3% | -6.8% | 22.4% | 0.0475% |  |  |  |  |  |  |  |  | 
